Results: ChEMBL document CHEMBL3217437, “The p53-MDM2/MDMX axis - A chemotype perspective” (Medchemcomm, 2011)
Blank lines part the entries; values can stand above or below the compound they belong to.

What was measured:
[1] = biological target: T1, Tumour suppressor p53/oncoprotein Mdm2 (Homo sapiens, UniProt P04637+Q00987); assay: Inhibition of p53 interaction to MDM2 (unknown origin); type: protein assay
Target sequence in this assay (P04637 whole entry): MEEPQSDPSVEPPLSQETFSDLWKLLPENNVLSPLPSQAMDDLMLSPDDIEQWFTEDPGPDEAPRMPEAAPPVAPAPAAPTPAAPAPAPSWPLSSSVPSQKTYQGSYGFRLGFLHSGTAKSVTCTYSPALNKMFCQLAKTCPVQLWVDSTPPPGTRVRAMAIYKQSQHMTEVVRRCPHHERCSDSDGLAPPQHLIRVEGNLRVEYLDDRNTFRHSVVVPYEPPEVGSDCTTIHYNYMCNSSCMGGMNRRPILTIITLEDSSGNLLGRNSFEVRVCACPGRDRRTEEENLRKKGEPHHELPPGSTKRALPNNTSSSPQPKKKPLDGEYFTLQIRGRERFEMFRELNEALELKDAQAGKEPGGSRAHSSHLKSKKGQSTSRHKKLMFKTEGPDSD
Target sequence in this assay (Q00987 whole entry): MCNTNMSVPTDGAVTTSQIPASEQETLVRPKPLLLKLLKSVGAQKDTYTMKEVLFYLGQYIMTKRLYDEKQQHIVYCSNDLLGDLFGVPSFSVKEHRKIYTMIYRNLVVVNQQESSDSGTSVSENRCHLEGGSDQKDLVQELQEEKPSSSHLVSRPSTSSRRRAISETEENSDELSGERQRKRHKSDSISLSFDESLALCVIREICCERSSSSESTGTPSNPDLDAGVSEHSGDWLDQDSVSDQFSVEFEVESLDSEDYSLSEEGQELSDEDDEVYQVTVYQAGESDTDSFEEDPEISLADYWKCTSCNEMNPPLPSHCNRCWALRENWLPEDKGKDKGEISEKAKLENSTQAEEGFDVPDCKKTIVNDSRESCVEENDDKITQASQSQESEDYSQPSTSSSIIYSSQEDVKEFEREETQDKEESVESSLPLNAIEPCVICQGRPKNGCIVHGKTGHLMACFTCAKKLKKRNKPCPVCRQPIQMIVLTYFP

[2] = biological target: T1, Tumour suppressor p53/oncoprotein Mdm2; assay: Inhibition of p53 interaction to GST-tagged MDM2 (unknown origin); type: protein assay
Target sequence in this assay (P04637 whole entry): as the sequence (P04637 whole entry) above
Target sequence in this assay (Q00987 whole entry): as the sequence (Q00987 whole entry) above

NCI-H460 = assay: Antiproliferative activity against human NCI-H460 cells; type: functional, cell-based
[3] = biological target: T1, Tumour suppressor p53/oncoprotein Mdm2; assay: Inhibition of His-tagged p53 interaction to GST-tagged MDM2 (unknown origin); type: protein assay
Target sequence in this assay (P04637 whole entry): as the sequence (P04637 whole entry) above
Target sequence in this assay (Q00987 whole entry): as the sequence (Q00987 whole entry) above

[4] = Antiproliferative activity against human DLD1 cells; type: functional, cell-based; conditions: DLD-1
A2780 = assay: Antiproliferative activity against human A2780 cells; type: functional, cell-based
[5] = biological target: T1, Tumour suppressor p53/oncoprotein Mdm2; assay: Inhibition of p53 interaction to MDM2 (unknown origin) by HTRF assay in presence of 0.02% bovine serum albumin; type: protein assay
Target sequence in this assay (P04637 whole entry): as the sequence (P04637 whole entry) above
Target sequence in this assay (Q00987 whole entry): as the sequence (Q00987 whole entry) above

[6] = biological target: T1, Tumour suppressor p53/oncoprotein Mdm2; assay: Inhibition of p53 interaction to MDM2 (unknown origin) by fluorescence polarization assay; type: protein assay
Target sequence in this assay (P04637 whole entry): as the sequence (P04637 whole entry) above
Target sequence in this assay (Q00987 whole entry): as the sequence (Q00987 whole entry) above

[7] = biological target: T1, Tumour suppressor p53/oncoprotein Mdm2; assay: Inhibition of p53 interaction to MDM2 (unknown origin) at 1.4 uM by HTRF assay; type: protein assay
Target sequence in this assay (P04637 whole entry, looked up): as the sequence (P04637 whole entry) above
Target sequence in this assay (Q00987 whole entry, looked up): as the sequence (Q00987 whole entry) above

[8] = biological target: Tumour suppressor protein p53/Mdm4 (Homo sapiens, UniProt O15151); assay: Inhibition of p53 interaction to MDMX (unknown origin) by fluorescence polarization assay; type: protein assay
[9] = biological target: T1, Tumour suppressor p53/oncoprotein Mdm2; assay: Inhibition of p53 interaction to MDM2 (unknown origin) by HTS assay; type: protein assay
Target sequence in this assay (P04637 whole entry): as the sequence (P04637 whole entry) above
Target sequence in this assay (Q00987 whole entry): as the sequence (Q00987 whole entry) above

Chain of Tumour suppressor protein p53/Mdm4 (P04637 whole entry): as the sequence (P04637 whole entry) above
Chain of Tumour suppressor protein p53/Mdm4 (O15151 whole entry): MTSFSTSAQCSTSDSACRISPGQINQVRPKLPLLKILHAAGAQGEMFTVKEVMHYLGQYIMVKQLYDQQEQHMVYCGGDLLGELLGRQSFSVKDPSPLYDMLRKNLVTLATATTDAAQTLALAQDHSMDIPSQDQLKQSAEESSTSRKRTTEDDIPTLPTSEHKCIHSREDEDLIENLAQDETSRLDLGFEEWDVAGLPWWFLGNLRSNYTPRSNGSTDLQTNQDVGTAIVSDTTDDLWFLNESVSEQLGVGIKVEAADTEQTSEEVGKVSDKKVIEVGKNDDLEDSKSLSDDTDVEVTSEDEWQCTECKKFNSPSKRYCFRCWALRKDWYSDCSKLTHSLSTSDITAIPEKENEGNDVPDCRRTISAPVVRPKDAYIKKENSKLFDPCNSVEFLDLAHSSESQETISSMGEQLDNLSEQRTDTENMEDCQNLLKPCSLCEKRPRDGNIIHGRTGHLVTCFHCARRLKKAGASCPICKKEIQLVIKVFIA

Structure (SMILES): CC(C)C1=C(C(=O)N2CCC[C@H]2C(=O)N(C)C)SC2=N[C@@](C)(c3ccc(Cl)nc3)[C@@H](c3ccc(Cl)cc3)N21
- IC50 (NCI-H460): 1380 nM
- IC50 [3]: 14 nM
- IC50 [4]: 40700 nM

Structure (SMILES): CC(C)(C)c1ncc(C2=N[C@@](C)(c3ccc(Cl)cc3)[C@@](C)(c3ccc(Cl)cc3)N2C(=O)N2CCN(CCOCCO)CC2)cn1
- IC50 [1]: 31 nM

Structure (SMILES): Fc1cc(Nc2ccncc2)cc(F)c1NCCc1c[nH]c2ccccc12
- IC50 (A2780): > 10000 nM

Structure (SMILES): CC(C)C1=C(C(=O)N2C[C@H](F)C[C@H]2C(=O)N2CCNC3(CC3)C2)SC2=N[C@@](C)(c3ccc(Cl)nc3)[C@@H](c3ccc(Cl)c(F)c3)N21
- IC50 [1]: 2.8 nM

Structure (SMILES): CC(C)Cc1cc(CCC(=O)O)ccc1-c1ccc(-c2ccc(OCC(=O)O)c(Cc3ccccc3)c2)c(Cc2ccccc2)c1
- Ki [6]: 970 nM

Structure (SMILES): COC(=O)c1cccc(S(=O)(=O)N2c3ccc(C(=O)N4CCN(C)CC4)c(=O)n3[C@@H](c3ccc(Cl)cc3)[C@H]2c2ccc(Cl)cc2)c1
- IC50 [1]: 460 nM

Structure (SMILES): CC(C)(C)C[C@@H]1N[C@@H](C(=O)NCC[C@H](O)CO)[C@@H](c2cc(F)cc(Cl)c2)[C@@]1(C#N)c1ccc(Cl)cc1F
- IC50 [5]: 165 nM

Structure (SMILES): Cc1ccc(CN2C(=O)c3ccccc3C2(O[C@H]2C=C[C@@H](O)C2)c2ccc(Cl)cc2)cc1 (some centres not stated)
- IC50 [1]: 1400 nM

Structure (SMILES): COC(=O)[C@]1(c2ccc(Cl)cc2)N=CN(CC2CC2)[C@H]1c1ccc(Cl)cc1
- Ki [9]: 3000 nM

Structure (SMILES): CCOC(=O)N1CCN(C(=O)[C@@]2(Sc3ccccc3)CC(=O)N(Cc3ccc(C#N)cc3)[C@@H]2c2c[nH]c3cc(Cl)ccc23)CC1
- IC50 [1]: 1000 nM

Structure (SMILES): CCOC(=O)[C@@]1(c2ccc(Cl)cc2)N=C(c2ccc(OC)cc2OC(C)C)N(C(=O)N2CCN(C(C)=O)CC2)[C@@H]1c1ccc(Cl)cc1
- IC50 [1]: 70 nM

Structure (SMILES): Clc1ccc2c(-c3c(-c4ccc5c(c4)OCO5)ncn3CC3CC3)c[nH]c2c1
- Ki [9]: 1000 nM

Structure (SMILES): COc1cc(C(=O)N(C)[C@@H](Cc2c[nH]c3ccccc23)C(=O)N2CCN(c3ccc([N+](=O)[O-])cc3)CC2)c([N+](=O)[O-])cc1OC
- IC50 [1]: 30 nM

Structure (SMILES): OC1CCc2c(Nc3ccc4c(c3)OCCN4CCc3c[nH]c4ccccc34)ccnc21 (configuration not stated)
- IC50 (A2780): 427 nM

Structure (SMILES): CC(C)(C)C[C@@H]1N[C@@H](C(=O)NCCCCO)[C@@H](c2cccc(Cl)c2)[C@@]1(C#N)c1ccc(Cl)cc1
- IC50 [5]: 309 nM

Continued, values first:

- IC50 [1]: 54 nM
Structure (SMILES): Cc1ccc(F)cc1[C@@H]1NC(=O)C[C@H](c2ccccc2OC(C)(C)C(=O)N2CCC(F)(F)CC2)[C@@]12C(=O)Nc1cc(Cl)ccc12

- IC50 [2]: 34 nM
Structure (SMILES): CC(=O)N1CCC(Oc2ccc(I)cc2[C@@H]2NC(=O)C[C@H](c3cccc(Cl)c3)[C@@]23C(=O)Nc2cc(Cl)ccc23)CC1

- IC50 [1]: 280 nM
Structure (SMILES): COc1cccc([C@]2(Cc3cccc(Cl)c3)C(=O)Nc3cc(Cl)ccc32)c1

- IC50 [5]: 145 nM
Structure (SMILES): Cc1ccc(F)cc1[C@@H]1NC(=O)C[C@H](c2cc(Cl)cnc2CC(C)(C)C(=O)O)[C@@]12C(=O)Nc1cc(Cl)ccc12

- IC50 [1]: 100 nM
Structure (SMILES): C=C(CC)[C@H]1N2CC(=O)N(CCCN(C)C)N=C2C[C@@H](c2cccc(Cl)c2)[C@]12C(=O)Nc1cc(Cl)ccc12

- inhibition [7]: 94.4%
Structure (SMILES): O=C1C[C@H](c2cccc(Cl)c2)[C@@]2(C(=O)Nc3cc(Cl)ccc32)[C@H](c2cccc(Cl)c2)C1

- Ki [8]: 55000 nM
Structure (SMILES): CC(C)(C)C[C@H]1N[C@@H](C(=O)NCCN2CCOCC2)[C@H](c2cccc(Cl)c2F)[C@@]12C(=O)Nc1cc(Cl)ccc12

- IC50 [1]: 370 nM
Structure (SMILES): Cc1cccc([C@H]2N(CC(=O)O)C(=O)C[C@@H](c3cccc(Cl)c3)[C@]23C(=O)Nc2cc(Cl)ccc23)c1 (racemic)

- IC50 [5]: 66 nM
Structure (SMILES): Cc1ccc(F)cc1[C@H]1NC(=O)C=C(c2cccc(Cl)c2)[C@]12C(=O)Nc1cc(Cl)ccc12

- IC50 [1]: 460 nM
Structure (SMILES): COc1cccc(C2(Cc3cccc(Cl)c3)C(=O)Nc3cc(Cl)ccc32)c1 (configuration not stated)
